Laboratory results: paper PMC12527173, “Cytotoxic, anti-inflammatory, antioxidant, and anti-glyoxalase-I evaluation of chelating substances: In silico and in vitro study” (PLOS One, 2025)
Where two headings read alike, the source gives them in different places.

Columns and labels:
[1] = target: T1, human recombinant Glo-I enzyme (rhGlo-I) (Homo sapiens, UniProt Q04760); design: method as in PMID 34264188; details: prior publication ref 87; read-out: IC50 against Glo-I; cited from earlier work
T1 construct: N-terminal Met and 6-His tag (N); purchased R&D Systems; host or cells: E. coli
T1 sequence (Q04760 2-184 limits assumed): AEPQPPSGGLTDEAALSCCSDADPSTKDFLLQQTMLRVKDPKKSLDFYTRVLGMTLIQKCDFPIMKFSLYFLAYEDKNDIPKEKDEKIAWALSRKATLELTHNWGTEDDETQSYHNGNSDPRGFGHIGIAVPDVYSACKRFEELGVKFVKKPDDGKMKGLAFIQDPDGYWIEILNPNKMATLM

[2] = system: SW620 colorectal cancer cell line; test: SRB cytotoxicity assay, SW620; type: cell-based; details: Homo sapiens, SW-620, 72 h incubation, n = 12, read-out: Cytotoxicity (as of %Control) IC50 value SW620
Procedure: (§1) The cancer cell lines were cultured in DMEM supplemented with 10% FBS (Bio Whittaker, Verviers, Belgium), HEPES Buffer (10 mM), gentamicin (50 µg/mL), L-glutamine (100 μg/mL), streptomycin ([…]), penicillin (100 µg/mL), and 4-(2-hydroxyethyl)-1-piperazineethanesulfonic acid (HEPES) Buffer (Sigma, St. Luis, MO, USA). The Sulforhodamine B used was obtained from Santa Cruz Biotechnology, Inc. in Texas, USA. […] Periodontal ligament fibroblasts (PDL) were utilized to assess specific cytotoxicity. Cancer cell lines that have survived offer several benefits. They provide a consistent and uninterrupted source of cells, so bypassing any ethical concerns related to the use of human tissue. Additionally, they are cost-effective. The cytotoxicity levels were assessed using the Sulforhodamine B (SRB) colorimetric assay, provided by Santa Cruz Biotechnology, Inc. in Texas, USA. The Spectro Scan 80D UV-VIS spectrophotometer, manufactured by Sedico Ltd. in Nicosia, Cyprus, was employed for this cytotoxicity screening. The cells were co-incubated with substances or a reference agent at various doses ranging from 5 to 200 μg/mL. […] The reduction in cell viability was analyzed by plotting Dose-response curves and expressing the data as a percentage of the control optical density. The IC50 values were obtained using regression analysis.

[3] = system: A375 human skin cancer cell line; test: SRB cytotoxicity assay, A375; type: cell-based; details: A-375, 72 h incubation, n = 12, read-out: Cytotoxicity (as of %Control) IC50 value A375 skin melanoma
Procedure: as §1

[4] = SRB cytotoxicity assay, normal PDL fibroblasts; type: cell-based; details: normal periodontal ligament (PDL) fibroblasts, 72 h incubation, 0.1–200 µM range, read-out: Cytotoxicity (as of %Control) IC50 value PDL fibroblasts
Procedure: as §1

[5] = system: PANC1 pancreatic cell line; test: SRB cytotoxicity assay, PANC1; type: cell-based; details: Homo sapiens, PANC-1, 72 h incubation, n = 12, read-out: Cytotoxicity (as of %Control) IC50 value PANC1
Procedure: as §1

[6] = system: HeLa uterine cervix adenocarcinoma cell line; test: SRB cytotoxicity assay, HeLa; type: cell-based; details: Homo sapiens, 72 h incubation, n = 12, read-out: Cytotoxicity (as of %Control) IC50 value Hela cervix malignancy
Procedure: as §1

[7] = system: HCT116 colorectal cancer cell line; test: SRB cytotoxicity assay, HCT116; type: cell-based; details: Homo sapiens, HCT-116, 72 h incubation, n = 12, read-out: Cytotoxicity (as of %Control) IC50 value HCT116
Procedure: as §1

[8] = system: T47D breast cancer cell line; test: SRB cytotoxicity assay, T47D; type: cell-based; details: Homo sapiens, 72 h incubation, n = 12, read-out: Cytotoxicity (as of %Control) IC50 value T47D mammary malignancy
Procedure: as §1

[9] = system: SW480 colorectal cancer cell line; test: SRB cytotoxicity assay, SW480; type: cell-based; details: Homo sapiens, 72 h incubation, n = 12, read-out: Cytotoxicity (as of %Control) IC50 value SW480
Procedure: as §1

[10] = system: A549 lung cancer cell line; test: SRB cytotoxicity assay, A549; type: cell-based; details: Homo sapiens, 72 h incubation, n = 12, read-out: Cytotoxicity (as of %Control) IC50 value A549 lung malignancy
Procedure: as §1

[11] = system: HT-29 colorectal cancer cell line; test: SRB cytotoxicity assay, HT29; type: cell-based; details: Homo sapiens, 72 h incubation, n = 12, read-out: Cytotoxicity (as of %Control) IC50 value HT29
Procedure: as §1

[12] = DPPH free radical scavenger assay; details: DPPH radical scavenging; n = 12
From the text: This approach relies on the reduction of the radicals, which causes a change in colour from oxidized purple to reduced yellow. Primarily, Diphenyl-2-picryl-hydrazyl (DPPH) is reduced in a solution of methanol (MeOH) when a chemical that donates hydrogen is present. This reduction is due to the creation of the non-radical form DPPH-H. The alteration in colour can be precisely assessed by employing a spectrophotometer within the wavelength range of 515–520 nm. Unlike other assays for radical scavenging, the DPPH radical is stable and yields consistent spectroscopic data. A 0.2 mM DPPH solution was diluted with MeOH and then combined with treatment compounds and ascorbic acid in a 1:1 concentration ratio using a 96-well plate. […] The solution was then incubated for one hour, isolated from light. Subsequently, the alteration in absorbance at a wavelength of 517 nm was quantified using a microplate reader manufactured by Bio-Tek Instrument in the United States. Ascorbic acid served as a strong and traditional benchmark for comparing the effectiveness of radical scavenging agents. The DPPH radical scavenging activity inhibition was calculated using the following equation, where A denotes photometric absorbance: The formula to calculate the percentage difference between a control and a sample is: (A control – A sample)/ A control x 100% [71, 72].

[13] = system: Human PC3 prostate cancer cell line; test: SRB cytotoxicity assay, PC3; type: cell-based; details: 72 h incubation, n = 12, read-out: Cytotoxicity (as of %Control) IC50 value PC3 prostate malignancy
Procedure: as §1

[14] = system: LPS-primed RAW 264.7 murine macrophages (nitrite / iNOS); test: Anti-inflammatory (nitrite) determination in LPS-primed macrophages; type: cell-based; details: Mus musculus
Procedure: The RAW 264.7 mouse macrophage cell line (ATCC® TIB-71) was cultivated in high glucose DMEM with 10% foetal bovine serum (FBS), 100 U/mL penicillin, 100 μg/mL streptomycin, and 100 μg/mL L-glutamate. The cells were incubated at 37°C in a humidified environment with 95% air and 5% CO2. Confluent macrophages (2 x 10^5/well) were cultured with lipopolysaccharide (LPS; 20 μg/mL; Sigma, St. Luis, MO, USA) and indomethacin (25–200 μg/mL) as the positive control, along with various concentrations (5–200 μg/mL) of treatment compounds. The cells were incubated for 24 hours. 100 μL of Griess reagent were combined with 100 μL portions of cell culture medium and left to incubate at room temperature for 10 minutes. The absorbance at a wavelength of 550 nm was measured using a microplate reader, namely the Spectro Scan 80D UV-VIS spectrophotometer manufactured by Sedico Ltd. in Nicosia, Cyprus. The nitrite concentration was assessed by comparing it to a standard curve of sodium nitrite. A cytotoxicity protocol using SRB was conducted to assess the impact of the test substances under study on RAW 264.7 viability.

[15] = system: Breast cancer cell line MCF7; test: SRB cytotoxicity assay, MCF7; type: cell-based; details: Homo sapiens, 72 h incubation, n = 12, read-out: Cytotoxicity (as of %Control) IC50 value MCF7 mammary malignancy
Procedure: as §1

[16] = system: CACO2 colorectal cancer cell line; test: SRB cytotoxicity assay, CACO2; type: cell-based; details: Homo sapiens, Caco-2, 72 h incubation, n = 12, read-out: Cytotoxicity (as of %Control) IC50 value CACO2
Procedure: as §1

Compound	IC50 [1] [µM]	IC50 [2] [µM]	IC50 [3] [µM]	IC50 at 72 h [4] [µM]	IC50 [5] [µM]	IC50 [6] [µM]	IC50 [7] [µM]	IC50 [8] [µM]	IC50 [9] [µM]	IC50 [10] [µM]	IC50 [11] [µM]	IC50 [12] [µM]	IC50 [13] [µM]	IC50 ([14]; RAW264.7, 24 h, read-out: iNOS- IC50 value) [µM]	IC50 ([14]; RAW264.7, read-out: IC50, ability to reduce inflammation) [µM]	IC50 [15] [µM]	IC50 [16] [µM]
C[C@H](Cc1ccc(O)c(O)c1)[C@@H](C)Cc1ccc(O)c(O)c1 [4,4’-((2R,3S)-2,3-dimethylbutane-1,4-diyl)bis(benzene-1,2-diol)]	0.0365	–	–	–	–	–	–	–	–	–	–	–	–	–	–	–	–
O=c1c(O)c(-c2cc(O)c(O)c(O)c2)oc2cc(O)cc(O)c12 [Myricetin, reference compound]	–	42.8 ± 0.78	51.7 ± 4.1	> 200	198 ± 43	35.8 ± 4.4	44.7 ± 2.14	29.8 ± 2.6	88.9 ± 14.1	27.5 ± 4.47	32.6 ± 1.06	70.7 ± 11.6	65.4 ± 1.84	0.07 ± 0.01	0.05	73 ± 0.78	106.5 ± 0.6
